Consider four compounds from patent US11850238B2, “Use of a thienopyridone derivative in the treatment of adrenoleukodystrophy or adrenomyeloneuropathy” (POXEL, priority 2020, dated 2023).

Like-named read-outs stand apart in the source and are kept apart here.

Assay [1] relates to AMN human patient-derived primary fibroblasts. In words: Hexacosanoic acid (VLCFA) level in AMN patient-derived fibroblasts, LC-MS. The format is cell-based. The settings on record: AMN patient-derived fibroblasts. The method, then:
In order to compare the efficacy of PXL770 and metformin to lower very long chain fatty acids (VLCFA) in vitro, the study focuses on the level assessment of the hexacosanoic acid, which is the most prevalent VLCFA, in healthy control cells and in AMN human patient-derived primary fibroblasts. The cell lines were obtained from Coriell Cell Repositories. Fibroblasts were cultured in DMEM with 15% FBS. The cultures were split in 1:5 ratio. Fibroblasts from healthy patients were used as control. All treatments were in complete media containing fetal bovine serum (FBS, 15%). All cultured cells were maintained at 37° C. in 5% CO2.
VLCFA content was then measured as follows. Samples are adjusted to a final volume of 0.5-1 ml with LC-MS grade water and spiked with 10 ng of Lignoceric acid-d4 as an internal standard. The sample is acidified to pH 3-4 with dilute hydrochloric acid and extracted with isooctane-ethyl acetate (9:1) three times with equal volume. The extract is dried under nitrogen and the residue is reconstituted in methanol-water-ammonium acetate (75:25:10 mM).
Total fatty acids: After preparing the samples with internal standard as described above for free fatty acids, aqueous sodium hydroxide is added to a final concentration of 1 M. The mixture is incubated at 37° C. in dark under nitrogen for 3 h. The samples are then acidified, extracted, and reconstituted as described above.
LC-MS analysis of fatty acids: The reconstituted fatty acid extracts are subjected to HPLC on Targa C8 column (2×10 mm) using methanol-aqueous ammonium acetate (10 mM) solvent mixture. The column is eluted with a gradient of methanol (75 to 90%) over 8 min at a flow rate of 0.25 ml/min. The column eluent is directly introduced to mass analyzer (QTRAP5500) and monitored for fatty acids using published pseudo MRM method. Under these conditions, the VLCFA elute between 5 and 8 min. Each fatty acid is quantitated against the added internal standard.
The study planned different groups of patients. First, the evolution of hexacosanoic acid in fibroblasts is monitored in healthy control cells and in AMN human patient-derived primary fibroblasts; and in a second time a treatment of PXL770 was assigned to AMN human-derived primary fibroblasts in culture at different doses (PXL770: 0.1, 0.5, 1, 2, 3.5 and 5 μM; metformin: 100, 200, 300 and 400 μM) for one week and the level of hexacosanoic acid was measured.
The experiment described in Example 3 was reproduced with various thienopyridone compounds, namely: • PXL770: potassium 2-chloro-3-(5-hydroxytetralin-6-yl)-6-oxo-5-phenyl-7H-thieno[2,3-b]pyridin-4-olate • PXL700: 2-chloro-4-hydroxy-3-indan-5-yl-5-(3-pyridyl)-7H-thieno[2,3-b]pyridin-6-one • PXL702: 2-chloro-4-hydroxy-3-(4-hydroxyindan-5-yl)-5-phenyl-7H-thieno[2,3-b]pyridin-6-one • PXL695: 2-chloro-5-(3-fluorophenyl)-4-hydroxy-3-(4-hydroxyindan-5-yl)-7H-thieno[2,3-b]pyridin-6-one, • each tested at concentrations from 0.1 to 5 μM.
A one-way ANOVA with Dunnett's multiple comparison test was performed to assess the effect of PXL770 on brain's VLCFAs (**** p<0.0001, *** p<0.001). A Kruskal-Wallis test with Dunn's multiple comparison test was performed to assess the effect of PXL770 on plasma's VLCFAs (**** p<0.0001, […]).

Assay [2] relates to ALD patient-derived lymphocytes. Conditions: ALD patient's derived lymphocytes, 5 mM, 7 days of treatment; FIG. 9; cited from earlier work.
In assay [3] the test system is ABCD2. The settings on record: AMN patient's derived fibroblasts, 5 mM; FIG. 11; cited from earlier work.
Assay [4] has as its system ABCD2. The settings on record: ALD patient's derived fibroblasts, 5 mM; FIG. 11; cited from earlier work.
The subject of the next assay is cultured fibroblasts. Conditions: cited from earlier work.
Assay [5] concerns ABCD2. The settings on record: ABCD1-KO mice glial cells, 100 μM; FIG. 12; cited from earlier work.
The subject of assay [6] is AMN human patient-derived primary lymphocytes. The settings on record: AMN patient's derived lymphocytes, 5 mM, 7 days of treatment; FIG. 9; cited from earlier work.
Where [7] appears, read: concentrations from 0.1 to 5 μM, FIG. 14.

As for `O=c1[nH]c2sc(Cl)c(-c3ccc4c(c3O)CCC4)c2c(O)c1-c1ccccc1` [PXL702, 2-chloro-4-hydroxy-3-(4-hydroxyindan-5-yl)-5-phenyl-7H-thieno[2,3-b]pyridin-6-one], the VLCFA levels entry in assay [1] (setting [7]) is recorded as “comparable decrease”.

With `O=c1[nH]c2sc(Cl)c(-c3ccc4c(c3)CCC4)c2c(O)c1-c1cccnc1` [PXL700, 2-chloro-4-hydroxy-3-indan-5-yl-5-(3-pyridyl)-7H-thieno[2,3-b]pyridin-6-one, reference compound], in assay [1] (setting [7]), the VLCFA levels entry is listed as “no or a very limited effect”.

On to `CN(C)C(=N)N=C(N)N` [metformin], for which the “decrease of VLCFA content” value is reported as −42% in assay [2] and −29% in assay [6]. Further, the ABCD2 protein expression entry in the assay on ABCD2 [3] and in the assay on ABCD2 [4] was “only slightly increased” throughout. For the same compound, the VLCFA levels result in assay [1] (400 μM, compared with thienopyridones at 5 μM, FIG. 15) is recorded as “no or a very limited effect”. For the same compound, in the assay on cultured fibroblasts, the “dose at which efficacy is observed” value was “at least 100 μM”. In addition, the ABCD2 protein levels entry in the assay with ABCD2 [5] is on record as “limited increase”.

In the case of `O=c1[nH]c2sc(Cl)c(-c3ccc4c(c3O)CCC4)c2c(O)c1-c1cccc(F)c1` [PXL695, 2-chloro-5-(3-fluorophenyl)-4-hydroxy-3-(4-hydroxyindan-5-yl)-7H-thieno[2,3-b]pyridin-6-one], the VLCFA levels entry in assay [1] (setting [7]) is recorded as “comparable decrease”.
